Values of other authors in patent US20090191194A1, “INHIBITION OF PROTEIN KINASE C ALPHA FOR THE TREATMENT OF CARDIOVASCULAR DISEASES” (Phenos GmbH, priority 2002, published 2009).

Assays:
PKC-alpha = PKC-alpha (Homo sapiens, UniProt P17252); settings: higher TPA concentration, for example 1.6 μM
[1] = test system: protein kinase C isoform alpha
[2] = test system: protein kinase C isoform beta I
[3] = test system: protein kinase C isoform beta II
[4] = biological target: cellular protein kinase C-alpha (Homo sapiens, UniProt P17252); settings: by changing the phosphorylation state of PKC-alpha

## CCCCCCCCCCCCCC(=O)O[C@@H]1[C@@H](C)[C@@]2(O)[C@@H](C=C(CO)C[C@]3(O)C(=O)C(C)=C[C@@H]23)[C@@H]2C(C)(C)[C@]12OC(C)=O [TPA, 12-o-tetradecanoylphorbol-13-acetate]
PKC-alpha
  PKC-alpha expression: completely inhibits

## cyclosporine A
[1]
  expression of protein kinase C isoform alpha: reduces the expression
[2]
  expression of protein kinase C isoform beta I: reduces the expression
[3]
  expression of protein kinase C isoform beta II: reduces the expression

## Cc1c(C)c2c(c(C)c1O)CC[C@@](C)(CCC[C@H](C)CCC[C@H](C)CCCC(C)C)O2 [alpha-tocopherol]
[4]
  inactivation of cellular protein kinase C-alpha: inactivate
